Experimental data taken from US11129835B2, “Methods and compositions for the inhibition of PIN1” (Beth Israel Deaconess Medical Center, Inc., priority 2012, dated 2021).
Square brackets hold non-standard residues; d marks the D form. Peptide text beside a SMILES is read from it. pT = C[C@@H](OP(=O)(O)O)[C@H](N)C(=O)O; 2Nal = N[C@@H](Cc1ccc2ccccc2c1)C(=O)O; Bta = N[C@@H](Cc1csc2ccccc12)C(=O)O; Pip = O=C(O)[C@@H]1CCCCN1

Tests used:
Pin1 [1] = target: T1, Pin1 (Homo sapiens, UniProt Q13526); experiment: Pin1 fluorescence polarization competition assay, primary qHTS (HiFluor-488 / Alexa488 probe);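 note: Pin1 protein with fluorescent peptide probe, compound displacement read by fluorescence polarization, percent inhibition derived from corrected polarization values, concentration-response curves in 1536-well format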
Procedure: (§1) The goal of this assay was to identify small-molecule inhibitors of Pin1 using a fluorescence polarization competition assay (FIG. 1). […] Candidate compounds were screened in a concentration-titration series (e.g., 57 μM to 0.7 nM).
(§2) Pin1 (0.6 μM) was dispensed into black, solid 1536-well plates (32 rows by 48 columns) at 2 μL/well in Pin1 buffer (10 mM HEPES (pH 7.5), 10 mM NaCl, 0.01% Tween20, 1 mM DTT, and 1% glycerol). Next, 23 nL of compound or DMSO was delivered to each well using a pin tool (tip wash sequence: DMSO, IPA, MeOH, 3 s vacuum dry). Two μL of Pin1-1b-HiFluor488 peptide in buffer (10 mM HEPES (pH 7.5), 10 mM NaCl, 0.01% Tween20, 1 mM DTT, and 1% glycerol, 0.02 μM Pin1-1b-HiFluor488) or DMSO was then dispensed to each well using a pin tool (tip wash sequence: DMSO, IPA, MeOH, 3 s vacuum dry), and plates were incubated at room temperature for 10 min (Table 2). Each plate included controls with no candidate inhibitory compound (32 wells), with unlabeled Pin1-1c titration (3.5 mM to 0.020 mM in a 1:2 dilution series including 2 replicates per concentration; 32 wells), and without Pin1 (64 wells).
(§3) The fluorescence polarization signal of each well was measured on a ViewLux® plate reader using a 480/20 nm excitation filter and 540/25 nm S and P emission filters with a 20 second exposure with 2× binning (Table 2). Percent inhibitory activity was determined from corrected fluorescence polarization values.
(§4) Concentration-response curves were fitted to the signals arising from the resulting fluorescence polarization. The concentration-effect curves were then classified based on curve quality (r^2), response magnitude, and degree of measured activity. Compounds were subsequently categorized based on their curve class.
Curves showing change polarized fluorescence may be categorized into 5 classes. Class 1 includes complete curves, having 2 asymptotes and an r^2 value of ≥0.9, with an efficacy of either >80% (class 1.1) or ≤80% (class 1.2). Class 1 curves may also be classified as noisy curves when efficacy is >80% and r^2<0.9 (class 1.3) or when efficacy is ≤80% and r^2<0.9 (class 1.4). Class 2 includes incomplete curves having 1 asymptote and an r^2 value of either >0.9 (subclass a) or <0.9 (subclass b), with an efficacy of either >80% (class 2.1) or ≤80% (class 2.2). Class 2 curves may also be classified as noisy curves when efficacy is >80% and r^2<0.9 (class 2.3) or when efficacy is ≤80% and r^2<0.9 (class 2.4). Class 3 includes single point activity curves having 1 asymptote and an efficacy >3 SD from the mean activity of the sample field at the highest tested concentration. […] A fifth class captures any curves not otherwise classified (FIG. 4).

Pin1 [2] = target: T1, Pin1; experiment: confirmatory Pin1 fluorescence polarization competition assay (Alexa488 reconfirmed); settings: for Emax: read-out: Alexa488 Reconfirmed Efficacy; for Alexa488 Reconfirmed Curve Class: confirmatory retest;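 for all read-outs here: Pin1 competition with a HiFluor488-labelled peptide probe, read as fluorescence polarization after 10 min at room temperature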
Procedure: as §1, §2, §3, §4

Pin1 [3] = target: T1, Pin1; experiment: Pin1 fluorescence polarization competition assay with Tamra-probe (secondary); settings: for Tamra Secondary Curve Class: Tamra-probe; for Emax: read-out: Tamra Secondary Efficacy
Procedure: An assay was developed for the identification of inhibitors of Pin1. […] Candidate compounds were screened in a concentration-titration series (e.g., 57 μM to 0.7 nM).
as §2, §3, §4
A further secondary assessment was accomplished by replacing the HiFluor-488-labeled probe with Tamra-probe, a red-shifted fluorophore.

full length Pin1 = target: T2, full length Pin1 (Homo sapiens, UniProt Q13526); experiment: single-step fluorescence polarization-based displacement assay (FP-HTS), 384-well, HF488 probe; format: binding
T2 construct: FP-HTS in a 384-well plate format with full length Pin1
Procedure: A high-throughput screen for identifying Pin1 inhibitors was developed using a single-step fluorescence polarization-based displacement assay (FP-HTS).
The FP-HTS with a 5 nM probe and 200 nM Pin1 was used to conduct a pilot screen on a selected set of chemical libraries.
The anti-cancer effect of RAs was examined to determine whether it depends on RAR in the breast cancer cells.

[4] = Alexa488 Primary Potency, primary qHTS
[5] = Average HTS Potency, average over Alexa488 primary, Alexa488 reconfirmed and Tamra secondary assays
[6] = read-out: Alexa488 Primary Efficacy

T1 sequence (Q13526 whole entry): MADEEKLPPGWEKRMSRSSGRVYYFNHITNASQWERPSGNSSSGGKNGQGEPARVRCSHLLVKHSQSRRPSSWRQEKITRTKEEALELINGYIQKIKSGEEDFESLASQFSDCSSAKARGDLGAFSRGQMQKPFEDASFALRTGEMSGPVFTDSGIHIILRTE
T2 sequence (Q13526 whole entry): as above

SMILES	IC50 (Pin1 [1]; [4]) [µM]	IC50 (Pin1 [1]; [5]) [µM]	Emax (Pin1 [1]; [6]) [%]	Emax (Pin1 [1]; read-out: Average HTS Efficacy) [%]	IC50 (Pin1 [2]) [µM]	Emax (Pin1 [2]) [%]	IC50 (Pin1 [3]) [µM]	Tamra Secondary Curve Class (Pin1 [3])	Emax (Pin1 [3]) [%]	Alexa488 Reconfirmed Curve Class (Pin1 [2])	Alexa488 Primary Curve Class (Pin1 [1]; primary qHTS)	displacement of HF488 probe from Pin1 (full length Pin1)	Kd (full length Pin1; four residue core structure (pTide) of the HF488 fluorescent probes) [nM]
CCCCCCCCCCCCN1[C@@H](C(=O)O)c2cc(C(F)(F)F)ccc2S1(=O)=O [Compound 34]	20	27	65	91	24	104	38	3.0	103	–	–	–	–
O=C(NC(Cc1ccccc1)C(=O)O)/C(=C\c1ccco1)NC(=O)c1ccccc1 (centres unmarked) [Compound 35]	38	19	26	71	9	112	11	2.2 (≤80% (class 2.2))	75	–	–	–	–
CCCCOc1ccc(C(=O)N/C(=C/c2cccc([N+](=O)[O-])c2)C(=O)O)cc1 [Compound 36]	11	15	101	80	14	62	19	2.2 (≤80% (class 2.2))	76	2.2 (≤80% (class 2.2))	–	–	–
CC(C)COc1ccc(C(=O)N/C(=C\c2cccc([N+](=O)[O-])c2)C(=O)O)cc1 [Compound 37]	85	37	19	47	15	63	12	2.2 (≤80% (class 2.2))	58	2.2 (≤80% (class 2.2))	1.2 (≤80% (class 1.2))	–	–
COc1ccc(NS(=O)(=O)c2ccc3c(c2)[C@H]2C=CC[C@H]2[C@@H](c2ccc(C(=O)O)cc2)N3)cc1 [Compound 40]	25	20	55	83	10	99	24	2.2 (≤80% (class 2.2))	96	–	–	–	–
O=C(O)c1cc(Cl)c2c(c1)[C@@H]1C=CC[C@@H]1[C@H](c1ccc(S(=O)(=O)N3CCOCC3)cc1)N2 [Compound 41]	30	23	88	77	19	62	19	2.2 (≤80% (class 2.2))	80	2.2 (≤80% (class 2.2))	2.2 (≤80% (class 2.2))	–	–
COC(=O)COc1ccc(C2Nc3c(Cl)ccc(C(=O)O)c3C3C=CCC32)cc1 (centres unmarked) [Compound 42]	19	23	73	76	27	82	24	2.2 (≤80% (class 2.2))	73	2.2 (≤80% (class 2.2))	1.2 (≤80% (class 1.2))	–	–
O=C(O)c1[nH]c2ccccc2c1C(c1cc(Cl)cc([N+](=O)[O-])c1O)c1c(C(=O)O)[nH]c2ccccc12 [Compound 44]	36	24	90	79	12	63	24	2.2 (≤80% (class 2.2))	83	2.2 (≤80% (class 2.2))	2.2 (≤80% (class 2.2))	–	–
C=CCOc1ccc(C(c2c(C(=O)O)[nH]c3ccccc23)c2c(C(=O)O)[nH]c3ccccc23)cc1 [Compound 46]	43	30	82	81	27	84	21	2.2 (≤80% (class 2.2))	78	2.2 (≤80% (class 2.2))	2.2 (≤80% (class 2.2))	–	–
COc1cc(C(c2c(C(=O)O)[nH]c3ccccc23)c2c(C(=O)O)[nH]c3ccccc23)ccc1OCc1ccccc1 [Compound 47]	79	40	26	67	19	84	21	–	91	2.2 (≤80% (class 2.2))	1.2 (≤80% (class 1.2))	–	–
C[C@@H](OP(=O)(O)O)[C@H](NC(=O)[C@@H](N)Cc1csc2ccccc12)C(=O)N1CCCC[C@H]1C(=O)N[C@@H](Cc1ccc2ccccc2c1)C(=O)O [pTide, Bth-L-phos.Thr-Pip-Nal] (H-[Bta][pT][Pip][2Nal]-OH; N-terminus and C-terminus assumed)	–	–	–	–	–	–	–	–	–	–	–	displaced HF488 probe from Pin1	258
